Experimental data reported in PubChem BioAssay (NCI).
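These data come from cells grown in 96-well plates and exposed to compound for 48 hours at five concentrations. TGI: total growth inhibition.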

How the values were obtained:
Test in all cases: growth of human tumour cells (NCI), 48 h
DMS 273 small cell lung = tested on: DMS 273 small cell lung
RXF-631 renal = tested on: RXF-631 renal
XF 498 CNS = tested on: XF 498 CNS
EKVX NSCLC = tested on: EKVX NSCLC
CAKI-1 renal = tested on: CAKI-1 renal
U251 CNS = tested on: U251 CNS
SW-620 colon = tested on: SW-620 colon
UACC-62 melanoma = tested on: UACC-62 melanoma
LXFL 529 NSCLC = tested on: LXFL 529 NSCLC
DLD-1 colon = tested on: DLD-1 colon
DMS 114 small cell lung = tested on: DMS 114 small cell lung
HOP-18 NSCLC = tested on: HOP-18 NSCLC
OVCAR-8 ovarian = tested on: OVCAR-8 ovarian
ACHN renal = tested on: ACHN renal
SK-MEL-5 melanoma = tested on: SK-MEL-5 melanoma
OVCAR-4 ovarian = tested on: OVCAR-4 ovarian
K-562 leukemia = tested on: K-562 leukemia
OVCAR-3 ovarian = tested on: OVCAR-3 ovarian
SNB-19 CNS = tested on: SNB-19 CNS
HL-60(TB) leukemia = tested on: HL-60(TB) leukemia
RPMI-8226 leukemia = tested on: RPMI-8226 leukemia
IGROV1 ovarian = tested on: IGROV1 ovarian
RXF 393 renal = tested on: RXF 393 renal
HCC-2998 colon = tested on: HCC-2998 colon
KM20L2 colon = tested on: KM20L2 colon
HOP-62 NSCLC = tested on: HOP-62 NSCLC
NCI-H23 lung = tested on: NCI-H23 lung
M19-MEL melanoma = tested on: M19-MEL melanoma
SF-539 CNS = tested on: SF-539 CNS
HCT-116 colon = tested on: HCT-116 colon
HOP-92 NSCLC = tested on: HOP-92 NSCLC
SNB-78 CNS = tested on: SNB-78 CNS
NCI-H460 lung = tested on: NCI-H460 lung
COLO 205 colon = tested on: COLO 205 colon
TK-10 renal = tested on: TK-10 renal
LOX IMVI melanoma = tested on: LOX IMVI melanoma
UACC-257 melanoma = tested on: UACC-257 melanoma
MOLT-4 leukemia = tested on: MOLT-4 leukemia
SK-MEL-28 melanoma = tested on: SK-MEL-28 melanoma
A498 renal = tested on: A498 renal
SF-295 CNS = tested on: SF-295 CNS
M14 melanoma = tested on: M14 melanoma
SNB-75 CNS = tested on: SNB-75 CNS
786-0 renal = tested on: 786-0 renal
SK-OV-3 ovarian = tested on: SK-OV-3 ovarian
CCRF-CEM leukemia = tested on: CCRF-CEM leukemia
HT29 colon = tested on: HT29 colon
SN12C renal = tested on: SN12C renal
HCT-15 colon = tested on: HCT-15 colon
A549 NSCLC = tested on: A549 NSCLC
BT-549 breast = tested on: BT-549 breast
NCI/ADR-RES ovarian = tested on: NCI/ADR-RES ovarian
OVCAR-5 ovarian = tested on: OVCAR-5 ovarian
PC-3 prostate = tested on: PC-3 prostate
SK-MEL-2 melanoma = tested on: SK-MEL-2 melanoma
HS 578T breast = tested on: HS 578T breast
SF-268 CNS = tested on: SF-268 CNS
MALME-3M melanoma = tested on: MALME-3M melanoma
T-47D breast = tested on: T-47D breast
NCI-H522 lung = tested on: NCI-H522 lung
UO-31 renal = tested on: UO-31 renal
NCI-H226 lung = tested on: NCI-H226 lung
MDA-MB-435 = tested on: MDA-MB-435
SR leukemia = tested on: SR leukemia
MDA-N = tested on: MDA-N
MDA-MB-231 breast = tested on: MDA-MB-231 breast
MCF7 breast = tested on: MCF7 breast
DU-145 prostate = tested on: DU-145 prostate
KM12 colon = tested on: KM12 colon

CCOC(=O)NC(=O)c1cn(CCCCCCCCCCC(=O)N2CCN(CCn3cc(C(=O)NC(=O)OCC)c(=O)[nH]c3=O)CC2)c(=O)[nH]c1=O
TGI (DMS 273 small cell lung): > 100 µM | TGI (RXF-631 renal): > 100 µM | TGI (XF 498 CNS): > 100 µM | TGI (EKVX NSCLC): > 100 µM | TGI (CAKI-1 renal): > 100 µM | TGI (U251 CNS): > 100 µM | TGI (SW-620 colon): > 100 µM | TGI (UACC-62 melanoma): > 100 µM | TGI (LXFL 529 NSCLC): > 100 µM | TGI (DLD-1 colon): > 100 µM | TGI (DMS 114 small cell lung): > 100 µM | TGI (HOP-18 NSCLC): > 100 µM | TGI (OVCAR-8 ovarian): > 100 µM | TGI (ACHN renal): > 100 µM | TGI (SK-MEL-5 melanoma): > 100 µM | TGI (OVCAR-4 ovarian): > 100 µM | TGI (K-562 leukemia): > 100 µM | TGI (OVCAR-3 ovarian): > 100 µM | TGI (SNB-19 CNS): > 100 µM | TGI (HL-60(TB) leukemia): > 100 µM | TGI (RPMI-8226 leukemia): > 100 µM | TGI (IGROV1 ovarian): > 100 µM | TGI (RXF 393 renal): > 100 µM | TGI (HCC-2998 colon): > 100 µM | TGI (KM20L2 colon): > 100 µM | TGI (HOP-62 NSCLC): > 100 µM | TGI (NCI-H23 lung): > 100 µM | TGI (M19-MEL melanoma): > 100 µM | TGI (SF-539 CNS): > 100 µM | TGI (HCT-116 colon): > 100 µM | TGI (HOP-92 NSCLC): > 100 µM | TGI (SNB-78 CNS): > 100 µM | TGI (NCI-H460 lung): > 100 µM | TGI (COLO 205 colon): > 100 µM | TGI (TK-10 renal): > 100 µM | TGI (LOX IMVI melanoma): > 100 µM | TGI (UACC-257 melanoma): > 100 µM | TGI (MOLT-4 leukemia): > 100 µM | TGI (SK-MEL-28 melanoma): > 100 µM | TGI (A498 renal): > 100 µM | TGI (SF-295 CNS): > 100 µM | TGI (M14 melanoma): > 100 µM | TGI (SNB-75 CNS): > 100 µM | TGI (786-0 renal): > 100 µM | TGI (SK-OV-3 ovarian): > 100 µM | TGI (CCRF-CEM leukemia): > 100 µM | TGI (HT29 colon): > 100 µM | TGI (SN12C renal): > 100 µM | TGI (HCT-15 colon): > 100 µM | TGI (A549 NSCLC): > 100 µM

COc1ccc(Cc2cc(OC)c(OC)c(OC)c2)cc1O
TGI (BT-549 breast): > 100 µM | TGI (NCI/ADR-RES ovarian): > 100 µM | TGI (OVCAR-5 ovarian): > 100 µM | TGI (DMS 273 small cell lung): > 100 µM | TGI (RXF-631 renal): > 100 µM | TGI (XF 498 CNS): > 100 µM | TGI (PC-3 prostate): > 100 µM | TGI (SK-MEL-2 melanoma): > 100 µM | TGI (EKVX NSCLC): > 100 µM | TGI (CAKI-1 renal): > 100 µM | TGI (HS 578T breast): > 100 µM | TGI (SF-268 CNS): > 100 µM | TGI (MALME-3M melanoma): > 100 µM | TGI (U251 CNS): > 22.7 µM | TGI (SW-620 colon): > 100 µM | TGI (UACC-62 melanoma): > 73.2 µM | TGI (LXFL 529 NSCLC): > 100 µM | TGI (DLD-1 colon): > 100 µM | TGI (DMS 114 small cell lung): 0.137 µM | TGI (T-47D breast): > 100 µM | TGI (NCI-H522 lung): 5.49 µM | TGI (UO-31 renal): > 63.2 µM | TGI (HOP-18 NSCLC): > 31.6 µM | TGI (OVCAR-8 ovarian): > 100 µM | TGI (ACHN renal): > 100 µM | TGI (SK-MEL-5 melanoma): > 37 µM | TGI (OVCAR-4 ovarian): > 100 µM | TGI (K-562 leukemia): > 100 µM | TGI (NCI-H226 lung): 99.4 µM | TGI (OVCAR-3 ovarian): > 100 µM | TGI (SNB-19 CNS): > 100 µM | TGI (HL-60(TB) leukemia): > 26.6 µM | TGI (RPMI-8226 leukemia): > 100 µM | TGI (IGROV1 ovarian): > 100 µM | TGI (RXF 393 renal): > 100 µM | TGI (HCC-2998 colon): > 65.9 µM | TGI (KM20L2 colon): > 100 µM | TGI (HOP-62 NSCLC): > 49.6 µM | TGI (NCI-H23 lung): > 100 µM | TGI (M19-MEL melanoma): > 100 µM | TGI (SF-539 CNS): 0.041 µM | TGI (HCT-116 colon): 13.6 µM | TGI (NCI-H460 lung): > 100 µM | TGI (COLO 205 colon): > 57.1 µM | TGI (TK-10 renal): > 100 µM | TGI (LOX IMVI melanoma): > 100 µM | TGI (UACC-257 melanoma): > 100 µM | TGI (MDA-MB-435): > 100 µM | TGI (MOLT-4 leukemia): > 100 µM | TGI (SK-MEL-28 melanoma): > 100 µM | TGI (A498 renal): 76.8 µM | TGI (SF-295 CNS): > 100 µM | TGI (M14 melanoma): > 100 µM | TGI (SNB-75 CNS): > 100 µM | TGI (SR leukemia): > 100 µM | TGI (786-0 renal): > 100 µM | TGI (MDA-N): > 100 µM | TGI (SK-OV-3 ovarian): > 80.2 µM | TGI (CCRF-CEM leukemia): > 100 µM | TGI (HT29 colon): > 90.6 µM | TGI (MDA-MB-231 breast): > 100 µM | TGI (MCF7 breast): > 100 µM | TGI (SN12C renal): > 100 µM | TGI (HCT-15 colon): > 100 µM | TGI (DU-145 prostate): > 100 µM | TGI (A549 NSCLC): > 100 µM

CC(C)CC(=O)N1CCN(C(=O)CC(C)C)c2ccccc21
TGI (OVCAR-5 ovarian): > 100 µM | TGI (DMS 273 small cell lung): > 100 µM | TGI (RXF-631 renal): > 100 µM | TGI (XF 498 CNS): > 100 µM | TGI (SK-MEL-2 melanoma): > 100 µM | TGI (EKVX NSCLC): > 100 µM | TGI (SF-268 CNS): > 100 µM | TGI (MALME-3M melanoma): > 100 µM | TGI (U251 CNS): > 100 µM | TGI (SW-620 colon): > 100 µM | TGI (LXFL 529 NSCLC): > 100 µM | TGI (DLD-1 colon): > 100 µM | TGI (DMS 114 small cell lung): > 100 µM | TGI (NCI-H522 lung): > 100 µM | TGI (UO-31 renal): > 100 µM | TGI (HOP-18 NSCLC): > 100 µM | TGI (OVCAR-8 ovarian): > 100 µM | TGI (ACHN renal): > 100 µM | TGI (K-562 leukemia): > 100 µM | TGI (OVCAR-3 ovarian): > 100 µM | TGI (SNB-19 CNS): > 100 µM | TGI (HL-60(TB) leukemia): > 100 µM | TGI (RPMI-8226 leukemia): > 100 µM | TGI (IGROV1 ovarian): > 100 µM | TGI (RXF 393 renal): > 100 µM | TGI (HCC-2998 colon): > 100 µM | TGI (KM20L2 colon): > 100 µM | TGI (HOP-62 NSCLC): > 100 µM | TGI (NCI-H23 lung): > 100 µM | TGI (M19-MEL melanoma): > 100 µM | TGI (KM12 colon): > 100 µM | TGI (SF-539 CNS): > 100 µM | TGI (HCT-116 colon): > 100 µM | TGI (HOP-92 NSCLC): > 100 µM | TGI (SNB-78 CNS): > 100 µM | TGI (NCI-H460 lung): > 100 µM | TGI (COLO 205 colon): > 100 µM | TGI (TK-10 renal): > 100 µM | TGI (LOX IMVI melanoma): > 100 µM | TGI (UACC-257 melanoma): > 100 µM | TGI (MOLT-4 leukemia): > 100 µM | TGI (SK-MEL-28 melanoma): > 100 µM | TGI (A498 renal): > 100 µM | TGI (SF-295 CNS): > 100 µM | TGI (SNB-75 CNS): > 100 µM | TGI (786-0 renal): > 100 µM | TGI (SK-OV-3 ovarian): > 100 µM | TGI (CCRF-CEM leukemia): > 100 µM | TGI (HT29 colon): > 100 µM | TGI (A549 NSCLC): > 100 µM
